According to patent US12398179B2, “Nanomolar peptides and derivatives to differentially modulate ephrin receptors” (Sanford Burnham Prebys Medical Discovery Institute, priority 2019, dated 2025):
Converted amounts (≈) assume the structure as drawn. Non-standard residues stand in square brackets, D forms with d. Residues, ends and D or L forms follow the SMILES beside them. *: point of attachment. Biotin = O=C1N[C@H]2[C@H](CS[C@H]2CCCCC(=O)*)N1; βAla = NCCC(=O)O

Legend:
[1] = Peptide solubility in PBS/H2O
EphA2 = EphA2 (Homo sapiens, UniProt P29317); experiment: ELISA: inhibition of ephrin-A5 AP binding to immobilized EphA2 Fc; set-up: the immobilized EphA2 extracellular domain fused to the Fc portion of an antibody (EphA2 Fc); details: average ± SE
Sequence of EphA2 (P29317 24-537 limits assumed, species assumed): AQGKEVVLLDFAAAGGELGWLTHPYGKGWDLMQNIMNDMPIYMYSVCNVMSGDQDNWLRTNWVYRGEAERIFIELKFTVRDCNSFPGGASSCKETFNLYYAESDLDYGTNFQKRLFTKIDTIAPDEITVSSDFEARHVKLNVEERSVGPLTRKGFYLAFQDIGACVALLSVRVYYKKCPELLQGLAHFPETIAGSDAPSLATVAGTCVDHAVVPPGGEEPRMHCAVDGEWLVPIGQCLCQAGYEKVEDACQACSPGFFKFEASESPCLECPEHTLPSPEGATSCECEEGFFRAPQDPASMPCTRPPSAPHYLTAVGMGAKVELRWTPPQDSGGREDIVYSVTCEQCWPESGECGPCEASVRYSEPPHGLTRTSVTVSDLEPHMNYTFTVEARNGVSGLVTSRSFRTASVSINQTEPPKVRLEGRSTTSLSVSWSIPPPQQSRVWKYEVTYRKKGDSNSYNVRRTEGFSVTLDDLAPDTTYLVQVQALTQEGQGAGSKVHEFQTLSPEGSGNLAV
Experimental: (FIG. 2A) Representative ELISAs comparing the ability of the peptides to inhibit binding of ephrin-A5 fused to alkaline phosphatase (ephrin-A5 AP) to the immobilized EphA2 extracellular domain fused to the Fc portion of an antibody (EphA2 Fc). The graphs show averages±SE from triplicate measurements from a representative experiment. IC50 values calculated from the fitted curves in each experiment are shown. All concentrations are nM and the 100 nM peptide concentration is outlined in red. (FIG. 2B) Ephrin-A5 AP binding to the indicated EphA receptors and ephrin-B2 AP binding to the indicated EphB receptors in the presence of the indicated peptide, normalized to ephrin binding without peptide. The bars show averages±SE from triplicate measurements.

[2] = PBS, Solubility in PBS (mg/ml), PBS (first figure of cell)
[3] = water, Solubility in H2O (mg/ml), H2O (second figure of cell)

Compound	solubility [1, 2] [µg/mL]	solubility ([1]; H2O, Solubility in H2O (mg/ml), H2O (second figure of cell)) [µg/mL]	solubility [1, 3] [µg/mL]	IC50 (EphA2) [nM]
CC(C)C[C@H](NC(=O)[C@H](Cc1c[nH]c2ccccc12)NC(=O)[C@H](C)NC(=O)CNC(=O)[C@@H](N)CSCC(N)=O)C(=O)N[C@@H](C)C(=O)N[C@@H](Cc1ccc(O)cc1)C(=O)N1CCC[C@H]1C(=O)N[C@@H](CC(=O)O)C(=O)N[C@@H](CO)C(=O)N[C@H](C(=O)N1CCC[C@H]1C(=O)N[C@@H](Cc1ccc(O)cc1)C(=O)N[C@@H](CCCNC(=N)N)C(=O)N1CCC[C@H]1C(=O)N[C@@H](CCCCNC(=O)CCCC[C@@H]1SC[C@@H]2NC(=O)N[C@@H]21)C(=O)O)C(C)C [CcamGA-WLA-YRPK-bio]	< 100	–	–	–
CC(C)C[C@H](NC(=O)[C@H](Cc1c[nH]c2ccccc12)NC(=O)[C@H](C)NC(=O)[C@@H](N)CCCCNC(=O)CCCC[C@@H]1SC[C@@H]2NC(=O)N[C@@H]21)C(=O)N[C@@H](C)C(=O)N[C@@H](Cc1ccc(O)cc1)C(=O)N1CCC[C@H]1C(=O)N[C@@H](CC(=O)O)C(=O)N[C@@H](CO)C(=O)N[C@H](C(=O)N1CCC[C@H]1C(=O)N[C@@H](Cc1ccc(O)cc1)C(=O)N[C@@H](CCCNC(=N)N)C(=O)N1CCC[C@H]1C(=O)N[C@@H](CCCCN)C(N)=O)C(C)C [K-bioA-WLA-YRPKam]	10000 (≈ 4.96 mM)	10000 (≈ 4.96 mM)	–	–
CSCC[C@H](NC(=O)[C@@H]1CCCN1C(=O)[C@@H](NC(=O)[C@H](CO)NC(=O)[C@H](CC(=O)O)NC(=O)[C@@H]1CCCN1C(=O)[C@H](Cc1ccc(O)cc1)NC(=O)[C@H](C)NC(=O)[C@H](CO)NC(=O)[C@@H](N)Cc1ccc(O)cc1)C(C)C)C(N)=O [YSA1-10am]	10000 (≈ 8.86 mM)	–	10000 (≈ 8.86 mM)	–
CSCC[C@H](NC(=O)[C@H](CCSC)NC(=O)[C@@H]1CCCN1C(=O)[C@@H](NC(=O)[C@H](CO)NC(=O)[C@H](CC(=O)O)NC(=O)[C@@H]1CCCN1C(=O)[C@H](Cc1ccc(O)cc1)NC(=O)[C@H](C)NC(=O)[C@H](CO)NC(=O)[C@@H](N)Cc1ccc(O)cc1)C(C)C)C(=O)N[C@@H](CO)C(=O)N[C@@H](CCCCNC(=O)CCCC[C@@H]1SC[C@@H]2NC(=O)N[C@@H]21)C(=O)O [YSA-K-bio]	10000 (≈ 5.88 mM)	–	10000 (≈ 5.88 mM)	–
CC(C)C[C@H](NC(=O)[C@H](Cc1c[nH]c2ccccc12)NC(=O)CCN)C(=O)N[C@@H](C)C(=O)N[C@@H](Cc1ccc(O)cc1)C(=O)N1CCC[C@H]1C(=O)N[C@@H](CC(=O)O)C(=O)N[C@@H](CO)C(=O)N[C@H](C(=O)N1CCC[C@H]1C(=O)N[C@@H](Cc1ccc(O)cc1)C(=O)NCC(=O)N[C@@H](CO)C(=O)N[C@@H](CCCCNC(=O)CCCC[C@@H]1SC[C@@H]2NC(=O)N[C@@H]21)C(=O)O)C(C)C [βA-WLA-YGSK-bio] (H-[βAla]WLAYPDSVPYGSK(Biotin)-OH; N-terminus and C-terminus assumed)	–	–	–	400 ± 70
CC(C)C[C@H](NC(=O)[C@H](Cc1c[nH]c2ccccc12)NC(=O)CCN)C(=O)N[C@@H](C)C(=O)N[C@@H](Cc1ccc(O)cc1)C(=O)N1CCC[C@H]1C(=O)N[C@@H](CC(=O)O)C(=O)N[C@@H](CO)C(=O)N[C@H](C(=O)N1CCC[C@H]1C(=O)N[C@@H](Cc1ccc(O)cc1)C(=O)N[C@@H](CCCCNC(=O)CCCC[C@@H]1SC[C@@H]2NC(=O)N[C@@H]21)C(=O)O)C(C)C [βA-WLA-YK-bio] (H-[βAla]WLAYPDSVPYK(Biotin)-OH; N-terminus and C-terminus assumed)	–	–	–	730 ± 90
CC(C)C[C@H](NC(=O)[C@H](Cc1c[nH]c2ccccc12)NC(=O)CCN)C(=O)N[C@@H](C)C(=O)N[C@@H](Cc1ccc(O)cc1)C(=O)N1CCC[C@H]1C(=O)N[C@@H](CC(=O)O)C(=O)N[C@@H](CO)C(=O)N[C@H](C(=O)N1CCC[C@H]1C(=O)N[C@@H](Cc1ccc(O)cc1)C(=O)N[C@@H](CO)C(=O)N[C@@H](CCCCNC(=O)CCCC[C@@H]1SC[C@@H]2NC(=O)N[C@@H]21)C(=O)O)C(C)C [βA-WLA-YSK-bio] (H-[βAla]WLAYPDSVPYSK(Biotin)-OH; N-terminus and C-terminus assumed)	2000 (≈ 1.16 mM)	–	–	–
